According to PubChem BioAssay AID489032 (Sanford-Burnham Center for Chemical Genomics, 2010):
pEC50: −log10 of the molar value. Activity calls are given as the source filed them. How the calls were made is not given here.

Each molecule was assayed on UPR adaptive arm reporter cells, luciferase luminescence (assay: activators of adaptive UPR signalling, dose response, cell-based, luciferase luminescence (AID 489032)).
In the case of CCOC(=O)c1nn(-c2ccc(OCC)cc2)c2nc(-c3ccco3)c(C#N)c(=O)n12, the EC50 was 58.9 µM (inactive).
For C=CCn1c(O)c(C2=c3ccccc3=NC2=O)sc1=Nc1ccc(O)cc1, the EC50 was 38.7 µM (inactive).
For CCCCCCCCCCn1c2c(c(=N)c3c1CCC3)CCC2, the EC50 was 24.9 µM (inactive).
In the case of Cc1ccc(C(C)C)c(OCc2ccc(C(=O)N/N=C/c3ccc(O)c(O)c3)cc2)c1, the pEC50 was 5.08.
CN(C)CCOc1ccc(-c2c(-c3ccccc3)sc3ccccc23)cc1 was tested, and the EC50 was > 80 µM (inactive).
With CCNC(=O)c1c(NC(=O)c2cc(-c3cc(C)ccc3O)n[nH]2)sc2c1CCCC2 the EC50 was > 80 µM (inactive).
O=C(NCCC1=CCCCC1)C(=O)NCC(c1ccco1)N1CCN(c2ccc(F)cc2)CC1 (centres undefined) was tested, and the EC50 was > 80 µM (inactive).
CN(C)C(=O)CCc1ccc2c3c([nH]c2c1)[C@]1(CCc2ccccc2)[C@@H](C(=O)N2CCCCC2)C[C@H](CC(=O)NCCC2=CCCCC2)C(=O)N1CC3 was tested, and the EC50 was 35.9 µM (inactive).
CCOc1ccccc1-n1c(SCC(=O)Nc2ccc(CC)cc2)nc2n[nH]c(C)c2c1=N gave a pEC50 of 5.23.
In the case of Cn1nnnc1Sc1ncnc2scc(-c3ccc(Cl)cc3)c12, the EC50 was > 80 µM (inactive).
CCc1ccc2nc(N(CCCN(C)C)C(=O)c3ccc(S(=O)(=O)N4CCc5ccccc5C4)cc3)sc2c1 was tested, and the EC50 was > 80 µM (inactive).
In the case of O=C(Nc1ccc([N+](=O)[O-])cc1)c1nc[nH]c1C(=O)NC1CCCCC1, the EC50 was > 80 µM (inactive).
With C=CCN1C(=O)/C(=C2/Sc3ccc(OC)cc3N2C)SC1=Nc1cccc(O)c1 the EC50 was > 80 µM (inactive).
C=CCOc1ccc(/C=N/N2C(=O)C(CC(=O)Nc3ccc(F)cc3F)SC2=NC)cc1 (centres undefined) was tested, and the EC50 was > 80 µM (inactive).
NCCc1c(-c2ccccc2)n(-c2ccccc2)c2ccccc12 was tested, and the EC50 was > 80 µM (inactive).
CCCCCc1nc2c(c(=O)c3ccccc3n2C)c(=O)n1C1CCCCCC1 was tested, and the EC50 was > 80 µM (inactive).
With CC(C)N(C(=O)[C@H]1C[C@H](CC(=O)NCC23CC4CC(CC(C4)C2)C3)C(=O)N2CCc3c([nH]c4ccc(Cl)cc34)[C@]12C)C(C)C the EC50 was > 80 µM (inactive).
With NS(=O)(=O)c1ccc(N/N=C/c2cn(-c3ccccc3)nc2-c2ccccc2)c([N+](=O)[O-])c1 the EC50 was > 80 µM (inactive).
For Nc1nc(Nc2cccc(F)c2)nc2ccccc12, the EC50 was 73.9 µM (inactive).
In the case of N/C(=N\c1nc(CSc2ccccn2)cc(=O)[nH]1)Nc1ccc(Cl)cc1Cl, the EC50 was > 80 µM (inactive).
With CCN(CC)c1ccc(-c2nn3c(-c4ccccc4OC)nnc3s2)cc1 the EC50 was > 80 µM (inactive).
With Cc1ccc(S(=O)(=O)N(CC(=O)N/N=C/c2ccc(F)cc2)c2cccc3cccnc23)cc1 the EC50 was > 80 µM (inactive).
For CC(=O)Nc1ccccc1Sc1ccc2c3c(cccc13)C(=O)N(c1ccc(C)cc1)C2=O, the EC50 was > 80 µM (inactive).
Work on CCOC(=O)c1ccc(-c2ccc(/C=N/NC(=O)CN(c3cccc(C)c3)S(C)(=O)=O)o2)cc1 yielded a pEC50 of 4.74.
With OCCNc1nc(Nc2ccc(Cl)c(Cl)c2)nc2ccccc12 the EC50 was > 80 µM (inactive).
In the case of COc1ccc2c(c1)NC(c1cc(Cl)cc(Cl)c1O)c1cccn1-2 (centres undefined), the EC50 was 33.3 µM (inactive).
For Brc1ccc2c(c1)C(c1ccc(N3CCOCC3)cc1)=NNC(c1cccs1)=N2, the EC50 was 26.4 µM (inactive).
With COc1ccc(-c2cc(C(F)F)n3ncc(C(=O)N4CCc5ccccc5C4)c3n2)cc1 the EC50 was 28.6 µM (inactive).
Nc1c(C(=O)Nc2ccc(S(=O)(=O)N3CCCC3)cc2)sc2nc3ccc(OC(F)(F)F)cc3cc12 gave a pEC50 of 4.92.
In the case of COc1cc(C(=O)Nc2nc(-c3ccc(Cl)cc3)c(C)s2)ccc1OCC(=O)Nc1ccc(F)cc1, the EC50 was > 80 µM (inactive).
For CCCCNC(=O)c1ccc(Cn2c(=S)[nH]c3c([nH]c4ccc(OC)cc43)c2=O)cc1, the EC50 was > 80 µM (inactive).
Molecule COc1ccc(N=c2oc3ccc(OC)cc3cc2-c2nc3ccccc3[nH]2)cc1 has a pEC50 of 4.82.
With Cc1ccc(C(C(=O)NCc2ccco2)N(C(=O)CNC(=O)c2cccs2)c2c(C)cc(C)cc2C)cc1 (centres undefined) the EC50 was > 80 µM (inactive).
With O=C(/C=C/c1ccc(Cl)cc1)NC(=S)Nc1ccc(N2CCOCC2)c(Cl)c1 the EC50 was > 80 µM (inactive).
With COc1ccc(NC(=O)c2cc3c(=O)n(C)c4ccccc4c3n2C)cc1Cl the EC50 was > 80 µM (inactive).
In the case of COc1ccc(NC(=O)C(=O)N/N=C\c2ccc(CNC(=O)C(=O)Nc3ccc(C)c(C)c3)o2)c(OC)c1, the EC50 was > 80 µM (inactive).
With CCOc1ccc(C(=O)Nc2ccc(NC(=O)c3ccco3)c(Cl)c2)cc1Cl the EC50 was > 80 µM (inactive).
In the case of Cc1nc(NC(=O)c2cc3c(C)nn(-c4ccccc4)c3s2)sc1C(=O)Nc1ccccc1, the EC50 was 41.3 µM (inactive).
For CN(c1ccccc1)S(=O)(=O)c1cccc(C(=O)NCCc2ccc(O)c(O)c2)c1, the EC50 was 32.2 µM (inactive).
With Cc1ccc(-c2nc(N/N=C/c3cccc([N+](=O)[O-])c3)c3ccccc3n2)cc1 the EC50 was > 80 µM (inactive).
In the case of COc1ccc(-c2csc3nc(-c4ccc(C)cc4)oc(=O)c23)cc1OC, the EC50 was > 80 µM (inactive).
In the case of COc1ccc2cc3c(N)nn(C(=O)C4CCC(C(C)(C)C)CC4)c3nc2c1 (centres undefined), the EC50 was > 80 µM (inactive).
Molecule Cc1cc(C)c2c(c1)/C(=c1/sc3n(c1=O)CN(c1ccccc1)CN=3)C(=O)N2 has a pEC50 of 4.72.
With O=C(Nc1ccc(SC(F)F)cc1)c1cc(-c2ccncc2)nc2ccccc12 the EC50 was 34.7 µM (inactive).
